Laboratory results as given in patent publication US20240246908A1 (ORION CORPORATION, priority 2021, published 2024).

System: YAP-TEAD
Assay: TEAD inhibition, Hippo Pathway TEAD Reporter MCF-7 luciferase assay
Format: cell-based
Conditions: Homo sapiens, MCF7, 24 h, Hippo Pathway TEAD Reporter MCF-7 cells, luciferase activity after 24 h; read-out: IC50 of the test compounds on YAP-TEAD inhibition (Group)
Outline: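 IC50 derived from ONE-Glo luciferase luminescence after 24 h compound exposure (11 concentrations in quadruplicate, 0.1% DMSO control). Reporter: MCF-7 line expressing firefly luciferase under TEAD elements, constitutively activated by nuclear YAP1.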

Compound	IC50
COc1ccc(Oc2ccc(C(F)(F)F)cc2)cc1NC(=O)C1CN(C)C(=O)C1O (stereo not drawn) [Compound 228, 4-Hydroxy-N-(2-methoxy-5-(4-(trifluoromethyl)phenoxy)phenyl)-1-methyl-5-oxopyrrolidine-3-carboxamide]	301 to 2000 nM
COc1ccc(Oc2ccc(C(F)(F)F)cc2)cc1NC(=O)C1CCC(=O)N1C(=O)C1CCC(=O)N1 (stereo not drawn) [Compound 229, N-(2-Methoxy-5-(4-(trifluoromethyl)phenoxy)phenyl)-5-oxo-1-(5-oxopyrrolidine-2-carbonyl)pyrrolidine-2-carboxamide]	< 50 nM
COc1ccc(Oc2ccc(C(F)(F)F)cc2)cc1NC(=O)C1CCC(=O)N1C(=O)C1CCC(=O)N1C (stereo not drawn) [Compound 230, N-(2-Methoxy-5-(4-(trifluoromethyl)phenoxy)phenyl)-1-(1-methyl-5-oxo-pyrrolidine-2-carbonyl)-5-oxopyrrolidine-2-carboxamide]	< 50 nM
COc1ccc(Oc2ccc(C(F)(F)F)cc2)cc1NC(=O)C1CCC(=O)N1C(=O)C1CC(=O)N1 (stereo not drawn) [Compound 231, N-(2-Methoxy-5-(4-(trifluoromethyl)phenoxy)phenyl)-5-oxo-1-(4-oxoazetidine-2-carbonyl)pyrrolidine-2-carboxamide]	< 50 nM
COc1ccc(Oc2ccc(F)c(F)c2)cc1NC(=O)C1CCC(=O)N1C(=O)C1CC(=O)N1 (stereo not drawn) [Compound 232, N-(5-(3,4-difluorophenoxy)-2-methoxyphenyl)-5-oxo-1-(4-oxoazetidine-2-carbonyl)pyrrolidine-2-carboxamide]	50 to 300 nM
CN1C(=O)CCC1C(=O)Nc1cc(Oc2cccc(C(F)(F)F)c2)cc2c1OCCO2 (stereo not drawn) [Compound 233, 1-Methyl-5-oxo-N-(7-(3-(trifluoromethyl)phenoxy)-2,3-dihydrobenzo[b][1,4]dioxin-5-yl)pyrrolidine-2-carboxamide]	50 to 300 nM
Cc1c(Oc2cccc(C(F)(F)F)c2)cc(NC(=O)C2CCC(=O)N2C)c2c1OCCO2 (stereo not drawn) [Compound 236, 1-Methyl-N-(8-methyl-7-(3-(trifluoromethyl)phenoxy)-2,3-dihydrobenzo[b]-[1,4]dioxin-5-yl)-5-oxopyrrolidine-2-carboxamide]	301 to 2000 nM
CN1C(=O)CCC1C(=O)Nc1cc(Oc2ccc(C(F)(F)F)cc2)cc2c1OCC2 (stereo not drawn) [Compound 237, 1-Methyl-5-oxo-N-(5-(4-(trifluoromethyl)phenoxy)-2,3-dihydrobenzofuran-7-yl)pyrrolidine-2-carboxamide]	< 50 nM
CN1C(=O)CCC1C(=O)Nc1cc(OCc2cccc(C(F)(F)F)c2)cc2c1OCC2 (stereo not drawn) [Compound 238, 1-Methyl-5-oxo-N-(5-((3-(trifluoromethyl)benzyl)oxy)-2,3-dihydrobenzofuran-7-yl)pyrrolidine-2-carboxamide]	50 to 300 nM
CN1C(=O)CCC1C(=O)Nc1cc(Oc2ccc(F)c(F)c2)cc2c1OCC2 (stereo not drawn) [Compound 239, N-(5-(3,4-Difluorophenoxy)-2,3-dihydrobenzofuran-7-yl)-1-methyl-5-oxopyrro-lidine-2-carboxamide]	< 50 nM
CN1C(=O)CCC1C(=O)Nc1cc(Oc2ccc(F)c(F)c2)cc2c1OCCO2 (stereo not drawn) [Compound 240, N-(7-(3,4-Difluorophenoxy)-2,3-dihydrobenzo[b][1,4]dioxin-5-yl)-1-methyl-5-oxopyrrolidine-2-carboxamide]	< 50 nM
CN1C(=O)CCC1C(=O)Nc1cc(Oc2ccc(F)cc2)cc2c1OCCO2 (stereo not drawn) [Compound 241, N-(7-(4-Fluorophenoxy)-2,3-dihydrobenzo[b][1,4]dioxin-5-yl)-1-methyl-5-oxo-pyrrolidine-2-carboxamide]	50 to 300 nM
CN1C(=O)CCC1C(=O)Nc1cc(COc2ccc(F)c(F)c2)cc2c1OCC2 (stereo not drawn) [Compound 242, N-(5-((3,4-Difluorophenoxy)methyl)-2,3-dihydrobenzofuran-7-yl)-1-methyl-5-oxopyrrolidine-2-carboxamide]	50 to 300 nM
CN1C(=O)CCC1C(=O)Nc1cc(COc2ccc(F)c(F)c2)cc2c1CCO2 (stereo not drawn) [Compound 243, N-(6-((3,4-Difluorophenoxy)methyl)-2,3-dihydrobenzofuran-4-yl)-1-methyl-5-oxopyrrolidine-2-carboxamide]	301 to 2000 nM
CN1C(=O)CCC1C(=O)Nc1cc(Oc2ccc(C(F)(F)F)cn2)cc2c1ncn2C (stereo not drawn) [Compound 244, 1-Methyl-N-(1-methyl-6-((5-(trifluoromethyl)pyridin-2-yl)oxy)-1H-benzo-[d]imidazol-4-yl)-5-oxopyrrolidine-2-carboxamide]	50 to 300 nM
COc1ccc(CNc2cccc(F)c2)cc1NC(=O)C1CCC(=O)N1 (stereo not drawn) [Compound 246, N-(5-(((3-Fluorophenyl)amino)methyl)-2-methoxyphenyl)-5-oxopyrrolidine-2-carboxamide]	301 to 2000 nM
COc1ccc(OC2CCC(F)(F)CC2)cc1NC(=O)C1CCC(=O)N1C (stereo not drawn) [Compound 247, N-(5-((4,4-Difluorocyclohexyl)oxy)-2-methoxyphenyl)-1-methyl-5-oxopyrrolidine-2-carboxamide]	50 to 300 nM
CN1C(=O)CCC1C(=O)Nc1cc(OCc2ccc(F)c(F)c2)cc2c1OCC2 (stereo not drawn) [Compound 248, N-(5-((3,4-Difluorobenzyl)oxy)-2,3-dihydrobenzofuran-7-yl)-1-methyl-5-oxopyrrolidine-2-carboxamide]	< 50 nM

Compound	IC50
CN1C(=O)CCC1C(=O)Nc1cc(COc2cccc(F)c2)cc2ccoc12 (stereo not drawn) [Compound 249, N-(5-((3-Fluorophenoxy)methyl)benzofuran-7-yl)-1-methyl-5-oxopyrrolidine-2-carboxamide]	50 to 300 nM
COc1cc(Oc2ccc(F)c(F)c2)cc(NC(=O)C2CCC(=O)N2C)c1F (stereo not drawn) [Compound 251, N-(5-(3,4-difluorophenoxy)-2-fluoro-3-methoxyphenyl)-1-methyl-5-oxopyrro-lidine-2-carboxamide]	301 to 2000 nM
COc1ccc(Oc2ccc(C(F)(F)F)cc2)cc1NC(=O)C12CCC(=O)N1CCS2(=O)=O (stereo not drawn) [Compound 252, N-(2-Methoxy-5-(4-(trifluoromethyl)phenoxy)phenyl)-5-oxotetrahydropyrrolo[2,1-b]thiazole-7a(5H)-carboxamide 1,1-dioxide]	301 to 2000 nM
COc1cc(NC(=O)C2CCC(=O)N2)cc(Oc2ccc(C(F)(F)F)cc2)c1 (stereo not drawn) [Compound 253, N-(3-Methoxy-5-(4-(trifluoromethyl)phenoxy)phenyl)-5-oxopyrro-lidine-2-carboxamide]	< 50 nM
COc1ccc(/C=C/c2cccc(F)c2)cc1NC(=O)C1CCC(=O)N1C (stereo not drawn) [Compound 254, (E)-N-(5-(3-Fluorostyryl)-2-methoxyphenyl)-1-methyl-5-oxopyrrolidine-2-carboxamide]	50 to 300 nM
COc1ccc(OC2CCC(C(F)(F)F)CC2)cc1NC(=O)C1CCC(=O)N1C (stereo not drawn) [Compound 255, N-(2-Methoxy-5-((4-(trifluoromethyl)cyclohexyl)oxy)phenyl)-1-methyl-5-oxo-pyrrolidine-2-carboxamide]	< 50 nM
COc1ccc(Cc2cccc(C(F)(F)F)c2)cc1NC(=O)C1CCC(=O)N1C (stereo not drawn) [Compound 256, N-(2-Methoxy-5-(3-(trifluoromethyl)benzyl)phenyl)-1-methyl-5-oxopyrrolidine-2-carboxamide]	50 to 300 nM
COc1ccc(Cc2ccc(C(F)(F)F)cc2)cc1NC(=O)C1CCC(=O)N1C (stereo not drawn) [Compound 257, N-(2-Methoxy-5-(4-(trifluoromethyl)benzyl)phenyl)-1-methyl-5-oxopyrrolidine-2-carboxamide]	50 to 300 nM
CN1C(=O)CCC1C(=O)Nc1cc(Oc2ccc(C(F)(F)F)cc2)ccc1Cl (stereo not drawn) [Compound 258, N-(2-Chloro-5-(4-(trifluoromethyl)phenoxy)phenyl)-1-methyl-5-oxopyrrolidine-2-carboxamide]	50 to 300 nM
COc1ccc(NC(=O)C2CCC(=O)N2C)cc1Oc1ccc(C(F)(F)F)cc1 (stereo not drawn) [Compound 259, N-(4-Methoxy-3-(4-(trifluoromethyl)phenoxy)phenyl)-1-methyl-5-oxo-pyrrolidine-2-carboxamide]	50 to 300 nM
COc1ccc(Oc2ccc(F)cc2)cc1NC(=O)C1CCC(=O)N1C (stereo not drawn) [Compound 260, N-(5-(4-Fluorophenoxy)-2-methoxyphenyl)-1-methyl-5-oxopyrrolidine-2-carboxamide]	50 to 300 nM
COc1cc(NC(=O)C2CCC(=O)N2)cc(Oc2cccc(C(F)(F)F)c2)c1 (stereo not drawn) [Compound 261, N-(3-Methoxy-5-(3-(trifluoromethyl)phenoxy)phenyl)-5-oxopyrrolidine-2-carboxamide]	50 to 300 nM
COc1ccc(Oc2cnc(F)c(C)c2)cc1NC(=O)C1CCC(=O)N1 (stereo not drawn) [Compound 262, N-(5-((6-Fluoro-5-methylpyridin-3-yl)oxy)-2-methoxyphenyl)-5-oxopyrrolidine-2-carboxamide]	301 to 2000 nM
COc1ccc(Oc2cnc(F)c(C)c2)cc1NC(=O)[C@H]1CCC(=O)N1C [Compound 263, (R)—N-(5-((6-fluoro-5-methylpyridin-3-yl)oxy)-2-methoxyphenyl)-1-methyl-5-oxopyrrolidine-2-carboxamide]	50 to 300 nM
COc1cc(NC(=O)C2CCC(=O)N2C)cc(OC2CCC(C(F)(F)F)CC2)c1 (stereo not drawn) [Compound 264]	< 50 nM
COc1ccc(OC2CCC(C(F)(F)F)CC2)cc1NC(=O)[C@H]1CCC(=O)N1C (stereo partly drawn) [Compound 265, (R)—N-(2-Methoxy-5-((4-(trifluoromethyl)cyclohexyl)oxy)phenyl)-1-methyl-5-oxopyrrolidine-2-carboxamide]	< 50 nM
COc1ccc(O[C@@H]2CCC[C@H](C(F)(F)F)C2)cc1NC(=O)C1CCC(=O)N1 (stereo partly drawn) [Compound 266, N-(2-Methoxy-5-(((1R,3S)-3-(trifluoromethyl)cyclohexyl)oxy)phenyl)-5-oxo-pyrrolidine-2-carboxamide]	50 to 300 nM
COc1ccc(O[C@H]2CCC[C@H](C(F)(F)F)C2)cc1NC(=O)C1CCC(=O)N1 (stereo partly drawn) [Compound 267, N-(2-Methoxy-5-(((1S,3S)-3-(trifluoromethyl)cyclohexyl)oxy)phenyl)-5-oxo-pyrrolidine-2-carboxamide]	50 to 300 nM
